{"source": "patent US20100256133A1", "about": "“NOVEL COMPOUNDS HAVING INDAZOLE FRAMEWORKS, METHODS FOR PREPARING THE SAME AND PHARMACEUTICAL COMPOSITION COMPRISING THE SAME” (priority 2007, published 2010)", "biological_target": "T1, GSK3β (Homo sapiens, UniProt P49841)", "T1 construct": "made in house; host or cells: Sf21 insect cells", "T1 sequence (P49841 whole entry)": "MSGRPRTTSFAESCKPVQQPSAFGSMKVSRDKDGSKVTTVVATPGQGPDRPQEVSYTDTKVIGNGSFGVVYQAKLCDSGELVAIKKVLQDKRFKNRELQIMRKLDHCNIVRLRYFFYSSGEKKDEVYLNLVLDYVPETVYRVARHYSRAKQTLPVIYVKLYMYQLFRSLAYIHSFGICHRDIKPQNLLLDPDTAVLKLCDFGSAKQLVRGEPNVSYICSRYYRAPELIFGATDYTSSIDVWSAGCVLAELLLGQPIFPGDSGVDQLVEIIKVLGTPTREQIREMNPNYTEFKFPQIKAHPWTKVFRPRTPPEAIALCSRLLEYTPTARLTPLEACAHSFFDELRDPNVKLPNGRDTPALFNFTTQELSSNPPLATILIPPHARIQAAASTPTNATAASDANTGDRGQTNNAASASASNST", "experiment": "Assay for inhibitory activity against GSK3β (Kinase-Glo luminescence)", "format": "biochemical", "settings": "750 nM ATP, 4 μM GSY-2 phosphopeptide; for inhibition at 25 µM: compound at 25 μM; for inhibition at 25 µM / inhibition at 50 µM: vs control without compound; for inhibition at 50 µM: compound at 50 μM", "experimental": "The compounds of the present invention were assayed for inhibitory activity against GSK3β. The GSK-3 is implicated in the incidence of various diseases including diabetes, Alzheimer's disease, CNS disorders and hypertrophic cardiomyopathy.\nGSK3β was purified from Sf21 cells using a procedure described in the literature, R. Dajani et. al. (Cell 2001, […], 721-732). GSK3β activity was examined at room temperature in 50 μl of 40 mM Tris-HCl, pH7.4, 10 mM MgCl2, 1 mM DTT, 0.2 mM EDTA, 200 μM NaVO3, 10 mM β-glyceralphosphate, 1 mM EGTA buffer containing 750 nM ATP and 4 μM GSY-2 phosphopeptide (substrate). After incubation at room temperature for […], Kinase-Glo reagent (Promega) was added to reaction mixtures of Preparation Examples 1-1 to 1-12, 1-80 to 1-90, and 1-92. The well plates were incubated at room temperature for […] to stabilize luminescent signals. The luminescent intensity, reflecting the quantity of ATP, was recorded using a counter (Wallac Victor 1420 multilabel counter) and used to determine % inhibition of GSK3β as compared to ATP level in the control to which none of the compounds of the present invention were added."}
{"smiles": "COc1ccn2ncc(-c3nc4c(cc3F)c(N)nn4CCOC(C)=O)c2c1", "note": "[Example 1-83]", "values": [{"measurement": "inhibition at 25 µM", "value": 81.2, "unit": "%"}, {"measurement": "inhibition at 50 µM", "value": 87.2, "unit": "%"}]}
{"smiles": "Cc1cccc2c(-c3nc4[nH]nc(NC(=O)Cc5ccc(F)cc5)c4cc3F)cnn12", "note": "[Example 1-6]", "values": [{"measurement": "inhibition at 25 µM", "value": 48.3, "unit": "%"}, {"measurement": "inhibition at 50 µM", "value": 70.8, "unit": "%"}]}
{"smiles": "O=C(Nc1n[nH]c2nc(-c3cnn4ccccc34)c(F)cc12)C1CCCC1", "note": "[Example 1-2]", "values": [{"measurement": "IC50", "value": 14.9, "unit": "µM"}, {"measurement": "inhibition at 25 µM", "value": 76.9, "unit": "%"}, {"measurement": "inhibition at 50 µM", "value": 95.3, "unit": "%"}]}
{"smiles": "O=C(Cc1ccc(F)cc1)Nc1n[nH]c2nc(-c3cnn4ccccc34)c(F)cc12", "note": "[Example 1-10]", "values": [{"measurement": "IC50", "value": 14.4, "unit": "µM"}, {"measurement": "inhibition at 25 µM", "value": 77.4, "unit": "%"}, {"measurement": "inhibition at 50 µM", "value": 90.7, "unit": "%"}]}
{"smiles": "Nc1nn(CCO)c2nc(-c3cnn4ccccc34)c(F)cc12", "note": "[Example 1-87]", "values": [{"measurement": "inhibition at 25 µM", "value": 26.7, "unit": "%"}]}
{"smiles": "COc1ccn2ncc(-c3nc4c(cc3F)c(NC(=O)c3ccccc3)nn4CCO)c2c1", "note": "[Example 1-92]", "values": [{"measurement": "inhibition at 25 µM", "value": 117, "unit": "%"}]}
{"smiles": "O=C(Nc1n[nH]c2nc(-c3cnn4ccccc34)c(F)cc12)C1CC1", "note": "[Example 1-1]", "values": [{"measurement": "IC50", "value": 10.2, "unit": "µM"}, {"measurement": "inhibition at 25 µM", "value": 80.8, "unit": "%"}, {"measurement": "inhibition at 50 µM", "value": 96.3, "unit": "%"}]}
{"smiles": "Cc1cccc2c(-c3nc4[nH]nc(NC(=O)c5ccc(N(C)C)cc5)c4cc3F)cnn12", "note": "[Example 1-7]", "values": [{"measurement": "IC50", "value": 13.3, "unit": "µM"}, {"measurement": "inhibition at 25 µM", "value": 71.2, "unit": "%"}, {"measurement": "inhibition at 50 µM", "value": 92.3, "unit": "%"}]}
{"smiles": "O=C(Nc1nn(CCO)c2nc(-c3cnn4ccccc34)c(F)cc12)c1ccccc1", "note": "[Example 1-89]", "values": [{"measurement": "inhibition at 25 µM", "value": 1.5, "unit": "%"}]}
{"smiles": "O=C(Nc1nn(C(=O)C2CCCC2)c2nc(-c3cnn4ccccc34)c(F)cc12)C1CCCC1", "note": "[Example 1-94]", "values": [{"measurement": "inhibition at 25 µM", "value": 41.7, "unit": "%"}, {"measurement": "inhibition at 50 µM", "value": 87.2, "unit": "%"}]}
{"smiles": "O=C(Cc1ccc(F)cc1)Nc1nn(CCO)c2nc(-c3cnn4ccccc34)c(F)cc12", "note": "[Example 1-86]", "values": [{"measurement": "inhibition at 25 µM", "value": 47.9, "unit": "%"}, {"measurement": "inhibition at 50 µM", "value": 86.5, "unit": "%"}]}
{"smiles": "CC(=O)OCCn1nc(NC(=O)Cc2ccc(F)cc2)c2cc(F)c(-c3cnn4ccccc34)nc21", "note": "[Example 1-95]", "values": [{"measurement": "inhibition at 25 µM", "value": 53.2, "unit": "%"}, {"measurement": "inhibition at 50 µM", "value": 78.9, "unit": "%"}]}
{"smiles": "COc1ccn2ncc(-c3nc4c(cc3F)c(N)nn4CCO)c2c1", "note": "[Example 1-90]", "values": [{"measurement": "inhibition at 25 µM", "value": 116, "unit": "%"}]}
{"smiles": "CC(=O)OCCn1nc(NC(=O)c2ccc(F)cc2)c2cc(F)c(-c3cnn4c(C)cccc34)nc21", "note": "[Example 1-81]", "values": [{"measurement": "inhibition at 25 µM", "value": 81.9, "unit": "%"}, {"measurement": "inhibition at 50 µM", "value": 97.5, "unit": "%"}]}
{"smiles": "CC(=O)OCCn1nc(NC(=O)C2CCCC2)c2cc(F)c(-c3cnn4ccccc34)nc21", "note": "[Example 1-85]", "values": [{"measurement": "IC50", "value": 34.9, "unit": "µM"}, {"measurement": "inhibition at 25 µM", "value": 68.6, "unit": "%"}, {"measurement": "inhibition at 50 µM", "value": 90.1, "unit": "%"}]}
{"smiles": "CC(=O)OCCn1nc(NC(=O)C2CC2)c2cc(F)c(-c3cnn4ccccc34)nc21", "note": "[Example 1-84]", "values": [{"measurement": "inhibition at 25 µM", "value": 24.4, "unit": "%"}, {"measurement": "inhibition at 50 µM", "value": 49.5, "unit": "%"}]}
{"smiles": "COc1ccn2ncc(-c3nc4[nH]nc(NC(=O)C5CC5)c4cc3F)c2c1", "note": "[Example 1-8]", "values": [{"measurement": "inhibition at 25 µM", "value": 37.7, "unit": "%"}, {"measurement": "inhibition at 50 µM", "value": 61.6, "unit": "%"}]}
{"smiles": "CC(=O)OCCn1nc(NC(=O)c2ccccc2)c2cc(F)c(-c3cnn4ccccc34)nc21", "note": "[Example 1-88]", "values": [{"measurement": "inhibition at 25 µM", "value": 23, "unit": "%"}]}
{"smiles": "Cc1cccc2c(-c3nc4c(cc3F)c(NC(=O)c3ccc(F)cc3)nn4C(=O)c3ccc(F)cc3)cnn12", "note": "[Example 1-93]", "values": [{"measurement": "inhibition at 25 µM", "value": 51.6, "unit": "%"}, {"measurement": "inhibition at 50 µM", "value": 88.6, "unit": "%"}]}
{"smiles": "COc1ccn2ncc(-c3nc4[nH]nc(N)c4cc3F)c2c1", "note": "[Example 1-12]", "values": [{"measurement": "inhibition at 25 µM", "value": 87.7, "unit": "%"}]}
{"smiles": "Cc1cccc2c(-c3nc4[nH]nc(NC(=O)c5cccc(C#N)c5)c4cc3F)cnn12", "note": "[Example 1-5]", "values": [{"measurement": "inhibition at 25 µM", "value": 35.1, "unit": "%"}, {"measurement": "inhibition at 50 µM", "value": 78, "unit": "%"}]}
{"smiles": "Cc1cccc2c(-c3nc4[nH]nc(NC(=O)C5CC5)c4cc3F)cnn12", "note": "[Example 1-3]", "values": [{"measurement": "inhibition at 25 µM", "value": 11.6, "unit": "%"}, {"measurement": "inhibition at 50 µM", "value": 53.1, "unit": "%"}]}
{"smiles": "COc1ccn2ncc(-c3nc4[nH]nc(NC(=O)Cc5ccc(F)cc5)c4cc3F)c2c1", "note": "[Example 1-9]", "values": [{"measurement": "IC50", "value": 20, "unit": "µM"}, {"measurement": "inhibition at 25 µM", "value": 58.2, "unit": "%"}, {"measurement": "inhibition at 50 µM", "value": 94.6, "unit": "%"}]}
{"smiles": "CC(=O)OCCn1nc(N)c2cc(F)c(-c3cnn4c(C)cccc34)nc21", "note": "[Example 1-80]", "values": [{"measurement": "inhibition at 25 µM", "value": 19.7, "unit": "%"}, {"measurement": "inhibition at 50 µM", "value": 37.8, "unit": "%"}]}
{"smiles": "CC(=O)OCCn1nc(N)c2cc(F)c(-c3cnn4ccccc34)nc21", "note": "[Example 1-82]", "values": [{"measurement": "inhibition at 25 µM", "value": 64.5, "unit": "%"}, {"measurement": "inhibition at 50 µM", "value": 80.4, "unit": "%"}]}
{"smiles": "Cc1cccc2c(-c3nc4[nH]nc(NC(=O)C5CCCC5)c4cc3F)cnn12", "note": "[Example 1-4]", "values": [{"measurement": "inhibition at 25 µM", "value": 63.8, "unit": "%"}, {"measurement": "inhibition at 50 µM", "value": 82.1, "unit": "%"}]}
{"smiles": "Nc1n[nH]c2nc(-c3cnn4ccccc34)c(F)cc12", "note": "[Example 1-11]", "values": [{"measurement": "inhibition at 25 µM", "value": 30, "unit": "%"}]}
